Measured values reported in US20100227921A1, “AMINO ACID AND PEPTIDE CARBAMATE PRODRUGS OF […] USES THEREOF” (SHIRE LLC, priority 2009, published 2010).
Several values for one entry are separate records, joined by “and”; a condition that tells them apart may be missing. Identical values can stand only once. Like-named read-outs stand apart in the source and are kept apart here. Marks after values point to notes of the source that are not given here.

Assays:
[1] = Comparative bioavailability after oral or intravenous administration to monkeys (plasma LC-MS-MS); assay type: in vivo, cynomolgus monkey; conditions: for half-life: read-out: t½ of tapentadol valine carbamate (converted); for AUC(0-t): read-out: AUCt of tapentadol valine carbamate; for clearance: read-out: CL of tapentadol valine carbamate (converted); for Vd: read-out: Vss of tapentadol valine carbamate; for Tmax: cynomolgus
Description: Test substances i.e., tapentadol and tapentadol valine carbamate were administered (either intravenously or orally) to a group of five male cynomolgus monkeys in a three way crossover design. The oral doses were given at 1 mg tapentadol base equivalents/kg while the intravenous dose was 0.5 mg/kg
Blood samples were taken at various times after administration and submitted to analysis for the parent drug and tapentadol valine carbamate using a validated LC-MS-MS assay. Pharmacokinetic parameters derived from the plasma analytical data were determined using Win Nonlin.

[2] = Comparative bioavailability after oral administration to rats (plasma LC-MS-MS); assay type: in vivo
Description: Test substances, i.e., tapentadol or tapentadol valine carbamate were administered by oral gavage to groups of male Sprague Dawley rats.
Blood samples were taken at various times after administration and submitted to analysis for the parent drug and pro-drug using a validated LC-MS-MS assay. Pharmacokinetic parameters derived from the plasma analytical data were determined using Win Nonlin.

[3] = male, cynomolgus monkey, plasma, iv, 0.5 mg/kg, male monkey, i.v. tapentadol valine carbamate 0.5 mg tapentadol free base equiv/kg, individual animals 1-5
[4] = male, cynomolgus monkey, plasma, iv, 0.5 mg/kg, male monkey, i.v. tapentadol valine carbamate 0.5 mg tapentadol free base equiv/kg, mean
[5] = male, cynomolgus monkey, plasma, po, 1 mg tapentadol free base equiv/kg, male monkey, oral tapentadol valine carbamate 1 mg tapentadol free base equiv/kg, individual animals 1-5
[6] = male, cynomolgus monkey, plasma, po, 1 mg tapentadol free base equiv/kg, male monkey, oral tapentadol valine carbamate 1 mg tapentadol free base equiv/kg, mean
[7] = male rat, oral tapentadol valine carbamate 10 mg tapentadol free base equiv/kg, individual animals 6-10

CC[C@H](c1cccc(OC(=O)N[C@H](C(=O)O)C(C)C)c1)[C@H](C)CN(C)C (racemic) [Tapentadol valine carbamate, 2-[3-(3-Dimethylamino-1-ethyl-2-methyl-propyl)-phenoxycarbonylamino]-3-methyl-butyric acid]
concentration at 0.5 h ([1]; male, cynomolgus monkey, plasma, iv, 0.5 mg tapentadol free base equiv/kg, male monkey, i.v. tapentadol valine carbamate 0.5 mg tapentadol free base equiv/kg, 0.5 h, mean): 471 ng/mL
concentration at 1 h ([1]; male, cynomolgus monkey, plasma, iv, 0.5 mg tapentadol free base equiv/kg, male monkey, i.v. tapentadol valine carbamate 0.5 mg tapentadol free base equiv/kg, 1 h, mean): 255 ng/mL
concentration at 2 h ([1]; male, cynomolgus monkey, plasma, iv, 0.5 mg tapentadol free base equiv/kg, male monkey, i.v. tapentadol valine carbamate 0.5 mg tapentadol free base equiv/kg, 2 h, mean): 98.6 ng/mL
concentration at 4 h ([1]; male, cynomolgus monkey, plasma, iv, 0.5 mg tapentadol free base equiv/kg, male monkey, i.v. tapentadol valine carbamate 0.5 mg tapentadol free base equiv/kg, 4 h, mean): 16 ng/mL
concentration at 6 h ([1]; male, cynomolgus monkey, plasma, iv, 0.5 mg tapentadol free base equiv/kg, male monkey, i.v. tapentadol valine carbamate 0.5 mg tapentadol free base equiv/kg, 6 h, mean): 4.39 ng/mL
concentration at 9 h ([1]; male, cynomolgus monkey, plasma, iv, 0.5 mg tapentadol free base equiv/kg, male monkey, i.v. tapentadol valine carbamate 0.5 mg tapentadol free base equiv/kg, 9 h, mean): 1.25 ng/mL
half-life ([1]; male, cynomolgus monkey, plasma, iv, 0.5 mg/kg, male monkey, i.v. tapentadol valine carbamate 0.5 mg tapentadol free base equiv/kg, calculated as ln2/mean k): 1.4 h
AUC [1, 3]: 680 ng·h/mL
AUC(0-t) [1, 3]: 678 ng·h/mL
clearance [1, 3]: 12.2 mL/min/kg
Vd [1, 3]: 0.75 L/kg
half-life [1, 3]: 1.5 h
AUC [1, 4]: 883 ng·h/mL
C0 [1, 4]: 1190 ng/mL
AUC(0-t) [1, 4]: 880 ng·h/mL
clearance [1, 4]: 9.63 mL/min/kg
Vd [1, 4]: 0.564 L/kg
half-life ([1]; male, cynomolgus monkey, plasma, po, 1 mg tapentadol free base equiv/kg, male monkey, oral tapentadol valine carbamate 1 mg tapentadol free base equiv/kg, calculated as ln2/mean k): 2.47 h
half-life [1, 5]: 2.28 h
AUC [1, 6]: 316 ng·h/mL
Cmax [1, 6]: 164 ng/mL
AUC(0-t) [1, 6]: 309 ng·h/mL
Tmax [1, 5]: 0.5 h
Tmax ([1]; male, cynomolgus monkey, plasma, po, 1 mg tapentadol free base equiv/kg, male monkey, oral tapentadol valine carbamate 1 mg tapentadol free base equiv/kg, median): 0.5 h
prodrug absorbed after oral administration ([1]; monkey, comparison of AUC after oral (Table 13) and intravenous dosing (Table 12)): at least 36%
concentration at 0.5 h ([2]; Sprague Dawley, plasma, male rat, oral tapentadol valine carbamate 10 mg tapentadol free base equiv/kg, 0.5 h, individual animals 6-10, read-out: Plasma concentration of tapentadol valine carbamate): 64.5 ng/mL
concentration at 1 h ([2]; Sprague Dawley, plasma, male rat, oral tapentadol valine carbamate 10 mg tapentadol free base equiv/kg, 1 h, individual animals 6-10, read-out: Plasma concentration of tapentadol valine carbamate): 72.4 ng/mL
concentration at 2 h ([2]; Sprague Dawley, plasma, male rat, oral tapentadol valine carbamate 10 mg tapentadol free base equiv/kg, 2 h, individual animals 6-10, read-out: Plasma concentration of tapentadol valine carbamate): 85.8 ng/mL
concentration at 4 h ([2]; Sprague Dawley, plasma, male rat, oral tapentadol valine carbamate 10 mg tapentadol free base equiv/kg, 4 h, individual animals 6-10, read-out: Plasma concentration of tapentadol valine carbamate): 42.5 ng/mL
concentration at 6 h ([2]; Sprague Dawley, plasma, male rat, oral tapentadol valine carbamate 10 mg tapentadol free base equiv/kg, 6 h, individual animals 6-10, read-out: Plasma concentration of tapentadol valine carbamate): 30.5 ng/mL
Plasma concentration of tapentadol valine carbamate ([2]; male rat, oral tapentadol valine carbamate 10 mg tapentadol free base equiv/kg, 0.5 h, individual animals 6-10): 79.5 ng/mL and 86.5 ng/mL and 77.5 ng/mL and 111 ng/mL
Plasma concentration of tapentadol valine carbamate ([2]; male rat, oral tapentadol valine carbamate 10 mg tapentadol free base equiv/kg, 1 h, individual animals 6-10): 73.8 ng/mL and 88.9 ng/mL and 83.1 ng/mL and 115 ng/mL
Plasma concentration of tapentadol valine carbamate ([2]; male rat, oral tapentadol valine carbamate 10 mg tapentadol free base equiv/kg, 2 h, individual animals 6-10): 57.3 ng/mL and 106 ng/mL and 76.4 ng/mL and 86.6 ng/mL
Plasma concentration of tapentadol valine carbamate ([2]; male rat, oral tapentadol valine carbamate 10 mg tapentadol free base equiv/kg, 3 h, individual animals 6-10): 76.7 ng/mL and 71.6 ng/mL and 74.8 ng/mL and 34.5 ng/mL and 86.4 ng/mL
Plasma concentration of tapentadol valine carbamate ([2]; male rat, oral tapentadol valine carbamate 10 mg tapentadol free base equiv/kg, 4 h, individual animals 6-10): 46.7 ng/mL and 47.0 ng/mL and 27.5 ng/mL and 51.6 ng/mL
Plasma concentration of tapentadol valine carbamate ([2]; male rat, oral tapentadol valine carbamate 10 mg tapentadol free base equiv/kg, 6 h, individual animals 6-10): 19.9 ng/mL and 38.9 ng/mL and 22.7 ng/mL and 31.3 ng/mL
Plasma concentration of tapentadol valine carbamate ([2]; male rat, oral tapentadol valine carbamate 10 mg tapentadol free base equiv/kg, 8 h, individual animals 6-10): 32.7 ng/mL and 14.6 ng/mL and 26.5 ng/mL and 21.3 ng/mL and 25.4 ng/mL
Plasma concentration of tapentadol valine carbamate ([2]; male rat, oral tapentadol valine carbamate 10 mg tapentadol free base equiv/kg, 12 h, individual animals 6-10): 9.49 ng/mL and 27.0 ng/mL and 11.4 ng/mL and 5.81 ng/mL and 14.5 ng/mL
Plasma concentration of tapentadol valine carbamate ([2]; male rat, oral tapentadol valine carbamate 10 mg tapentadol free base equiv/kg, 24 h, individual animals 6-10): 2.00 ng/mL and 0.915 ng/mL and 0.801 ng/mL and 0.656 ng/mL and 0.548 ng/mL
AUCt of tapentadol valine carbamate [2, 7]: 599 ng·h/mL and 615 ng·h/mL and 413 ng·h/mL and 650 ng·h/mL
Cmax of tapentadol valine carbamate [2, 7]: 79.5 ng/mL and 106 ng/mL and 83.1 ng/mL and 115 ng/mL
T>50%Cmax of tapentadol valine carbamate [2, 7]: 2.5 h (2×) and 3.5 h (2×) and 1.5 h
Tmax of tapentadol valine carbamate [2, 7]: 2 h
t½ of tapentadol valine carbamate [2, 7]: 3.83 h and 3.16 h and 3.60 h and 3.06 h
T>50%Cmax of tapentadol valine carbamate ([2]; male rat, oral tapentadol valine carbamate 10 mg tapentadol free base equiv/kg, median): 2.5^a h
Peak plasma levels of tapentadol compared with those after administration of the parent drug ([2]; male rat, oral, 10 mg tapentadol free base equiv/kg): somewhat lower
concentration at 0.5 h ([2]; male, Sprague Dawley, rat, plasma, po, 10 mg tapentadol free base equiv/kg, oral tapentadol valine carbamate 10 mg tapentadol free base equiv/kg, 0.5 h, mean, read-out: Plasma concentration of tapentadol valine carbamate): 83.8 ng/mL
concentration at 1 h ([2]; male, Sprague Dawley, rat, plasma, po, 10 mg tapentadol free base equiv/kg, oral tapentadol valine carbamate 10 mg tapentadol free base equiv/kg, 1 h, mean, read-out: Plasma concentration of tapentadol valine carbamate): 86.6 ng/mL
concentration at 2 h ([2]; male, Sprague Dawley, rat, plasma, po, 10 mg tapentadol free base equiv/kg, oral tapentadol valine carbamate 10 mg tapentadol free base equiv/kg, 2 h, mean, read-out: Plasma concentration of tapentadol valine carbamate): 82.4 ng/mL
concentration at 3 h ([2]; male, Sprague Dawley, rat, plasma, po, 10 mg tapentadol free base equiv/kg, oral tapentadol valine carbamate 10 mg tapentadol free base equiv/kg, 3 h, mean, read-out: Plasma concentration of tapentadol valine carbamate): 68.8 ng/mL
concentration at 4 h ([2]; male, Sprague Dawley, rat, plasma, po, 10 mg tapentadol free base equiv/kg, oral tapentadol valine carbamate 10 mg tapentadol free base equiv/kg, 4 h, mean, read-out: Plasma concentration of tapentadol valine carbamate): 43.1 ng/mL
concentration at 6 h ([2]; male, Sprague Dawley, rat, plasma, po, 10 mg tapentadol free base equiv/kg, oral tapentadol valine carbamate 10 mg tapentadol free base equiv/kg, 6 h, mean, read-out: Plasma concentration of tapentadol valine carbamate): 28.7 ng/mL
concentration at 8 h ([2]; male, Sprague Dawley, rat, plasma, po, 10 mg tapentadol free base equiv/kg, oral tapentadol valine carbamate 10 mg tapentadol free base equiv/kg, 8 h, mean, read-out: Plasma concentration of tapentadol valine carbamate): 24.1 ng/mL
concentration at 12 h ([2]; male, Sprague Dawley, rat, plasma, po, 10 mg tapentadol free base equiv/kg, oral tapentadol valine carbamate 10 mg tapentadol free base equiv/kg, 12 h, mean, read-out: Plasma concentration of tapentadol valine carbamate): 13.6 ng/mL
concentration at 24 h ([2]; male, Sprague Dawley, rat, plasma, po, 10 mg tapentadol free base equiv/kg, oral tapentadol valine carbamate 10 mg tapentadol free base equiv/kg, 24 h, mean): 0.984 ng/mL
half-life ([2]; male, Sprague Dawley, rat, plasma, po, 10 mg tapentadol free base equiv/kg, oral tapentadol valine carbamate 10 mg tapentadol free base equiv/kg, calculated as ln2/mean k, read-out: t½ of tapentadol valine carbamate (converted)): 3.54 h
AUC(0-t) ([2]; male, Sprague Dawley, rat, plasma, po, 10 mg tapentadol free base equiv/kg, oral tapentadol valine carbamate 10 mg tapentadol free base equiv/kg, individual animals 6-10, read-out: AUCt of tapentadol valine carbamate): 560 ng·h/mL
Cmax ([2]; male, Sprague Dawley, rat, plasma, po, 10 mg tapentadol free base equiv/kg, oral tapentadol valine carbamate 10 mg tapentadol free base equiv/kg, individual animals 6-10, read-out: Cmax of tapentadol valine carbamate): 85.8 ng/mL
half-life ([2]; male, Sprague Dawley, rat, plasma, po, 10 mg tapentadol free base equiv/kg, oral tapentadol valine carbamate 10 mg tapentadol free base equiv/kg, individual animals 6-10, read-out: t½ of tapentadol valine carbamate (converted)): 4.08 h
AUC(0-t) ([2]; male, Sprague Dawley, rat, plasma, po, 10 mg tapentadol free base equiv/kg, oral tapentadol valine carbamate 10 mg tapentadol free base equiv/kg, mean, read-out: AUCt of tapentadol valine carbamate): 567 ng·h/mL
Cmax ([2]; male, Sprague Dawley, rat, plasma, po, 10 mg tapentadol free base equiv/kg, oral tapentadol valine carbamate 10 mg tapentadol free base equiv/kg, mean, read-out: Cmax of tapentadol valine carbamate): 93.9 ng/mL
Tmax ([2]; male, Sprague Dawley, rat, plasma, po, 10 mg tapentadol free base equiv/kg, oral tapentadol valine carbamate 10 mg tapentadol free base equiv/kg, median, read-out: Tmax of tapentadol valine carbamate): 1 h
